The source of these data is US10086085B2, “Bifunctional cytotoxic agents” (priority 2014, dated 2018).

Molecules are shown by their SMILES. pIC50: −log10 of the molar value. Like-named read-outs stand apart in the source and are kept apart here.

For test [1], the system named is HL60 (leukemia). Nature of the test: Cytotoxicity assay for payloads (MTS), HL-60 cells. In kind it is cell-based. The conditions noted are these: incubated with compounds for four days, MTS absorbance 490 nm. On the procedure: (§1) Cancer cell lines were obtained from ATCC (Manassas, Va.). N87 (human gastric carcinoma derived from metastatic liver site). HL60 (leukemia), A375 (melanoma) and HUVEC (human umbilical vein endothelial cells). were grown in RPMI 1640 media. All media were supplemented with 10% fetal bovine serum, 1% sodium pyruvate, and 1% L-glutamine (Invitrogen, Grand Island, N.Y.). Human umbilical vein endothelial cells (HUVEC) were obtained from Lonza (Allendale, N.J.) and maintained in EGM2 media supplemented with EGM-2 SingleQuots (Lonza # CC-4176). All cells were maintained in a humidified incubator (37° C., 5% CO2).
(§2) Cells in 100 μl medium were cultured in a 96-well plate. Cancer cell lines treated with the indicated compounds by adding 50 μl of 3× stocks in duplicate at 10 concentrations. Cells were incubated with compounds for four days, then 30 μl of CellTiter® 96 AQueous One MTS Solution (Promega Cat # G3582) was added to the cells, incubated 1.5 hr at 37° C., then absorbance measured at 490 nm on a Victor plate reader (Perkin Elmer, Waltham, Mass.). Relative cell viability was determined as a percentage of untreated control wells. IC50 values were calculated using four parameter logistic model #203 with XLfit v4.2 (IDBS, Guildford, Surry, UK).

The test system of test [2] is N87 (human gastric carcinoma derived from metastatic liver site). Nature of the test: Cytotoxicity assay for payloads (MTS), N87 cells. Format: cell-based. The following applies: N87 cells, incubated with compounds for four days, MTS absorbance 490 nm, read-out: N87 IC50. On the procedure: as §1, §2

As a reminder, the pIC50 is the negative decadic logarithm of the IC50, by convention in mol/L. As for `CC(=O)Oc1cc2c(c3ccccc13)[C@H](CCl)CN2C(=O)C12CCC(C(=O)N3C[C@@H](CCl)c4c3cc(OC(C)=O)c3ccccc43)(CC1)N2` [Compound 79, 7-azabicyclo[2.2.1]heptane-1,4-diylbis[carbonyl(1S)-1-(chloromethyl)-1,2-dihydro-3H-benzo[e]indole-3,5-diyl]diacetate], the pIC50 in test [1] is 9.30; in test [2] it was 8.10.

Regarding `O=C(c1ccc(C(=O)N2C[C@@H](CCl)c3c2cc(O)c2ccccc32)s1)N1C[C@@H](CCl)c2c1cc(O)c1ccccc21` [Compound 29, (S)-thiophene-2,5-diylbis(((S)-1-(chloromethyl)-5-hydroxy-1H-benzo[e]indol-3(2H)-yl)methanone)], the negative logarithm of the IC50 (pIC50) in test [1] (Homo sapiens, 96 h) is over 12.00; in test [2] (Homo sapiens, 96 h), 11.05.

For `O=C(O)[C@H]1O[C@@H](Oc2cc3c(c4ccccc24)[C@H](CCl)CN3C(=O)CC23CC(C(=O)N4C[C@@H](CCl)c5c4cc(O)c4ccccc54)(C2)C3)[C@H](O)[C@@H](O)[C@@H]1O` [Compound 179, (1S)-1-(chloromethyl)-3-[(3-{[(1S)-1-(chloromethyl)-5-hydroxy-1,2-dihydro-3H-benzo[e]indol-3-yl]carbonyl}bicyclo[1.1.1]pent-1-yl)acetyl]-2,3-dihydro-1H-benzo[e]indol-5-yl beta-D-glucopyranosiduronic acid], the pIC50 in test [1] (Homo sapiens, 96 h) is 7.84; in test [2] (Homo sapiens, 96 h), 6.76.

Turning to `CC(=O)Oc1cc2c(c3ccccc13)[C@H](CCl)CN2C(=O)c1ccc(C(=O)N2C[C@@H](CCl)c3c2cc(OC(C)=O)c2ccccc32)cc1` [Compound 176, benzene-1,4-diylbis[carbonyl(1S)-1-(chloromethyl)-1,2-dihydro-3H-benzo[e]indole-3,5-diyl] diacetate], the pIC50 was 9.70 in test [1] (Homo sapiens, 96 h) and 7.58 in test [2] (Homo sapiens, 96 h).

Consider `CC(=O)Oc1cc2c(c3ccccc13)[C@H](CCl)CN2C(=O)C12CC(CC(=O)N3C[C@@H](CCl)c4c3cc(O)c3ccccc43)(C1)C2` [Compound 162, (1S)-1-(chloromethyl)-3-[(3-{2-[(1S)-1-(chloromethyl)-5-hydroxy-1,2-dihydro-3H-benzo[e]indol-3-yl]-2-oxoethyl}bicyclo[1.1.1]pent-1-yl)carbonyl]-2,3-dihydro-1H-benzo[e]indol-5-yl acetate], for which the pIC50 in test [1] (Homo sapiens, 96 h) was 10.70; in test [2] (Homo sapiens, 96 h) it was 9.13.

In the case of `CC(=O)Oc1cc2c(c3ccccc13)[C@H](CCl)CN2C(=O)CC12CC(CC(=O)N3C[C@@H](CCl)c4c3cc(OC(C)=O)c3ccccc43)(C1)C2` [Compound 158, bicyclo[1.1.1]pentane-1,3-diylbis[(1-oxoethane-2,1-diyl)(1S)-1-(chloromethyl)-1,2-dihydro-3H-benzo[e]indole-3,5-diyl] diacetate], the pIC50 in test [1] (Homo sapiens, 96 h) is 8.31; in test [2] (Homo sapiens, 96 h) it was 7.84.

As for `CC(=O)Oc1cc2c(c3c(C)c[nH]c13)[C@H](CCl)CN2C(=O)C12CC(C(=O)N3C[C@@H](CCl)c4c3cc(OC(C)=O)c3[nH]cc(C)c43)(C1)C2` [Compound 91, bicyclo[1.1.1]pentane-1,3-diylbis[carbonyl(1S)-1-(chloromethyl)-8-methyl-1,6-dihydropyrrolo[3,2-e]indole-3,5(2H)-diyl]diacetate], the pIC50 was 11.40 in test [1] (Homo sapiens, 96 h) and 10.24 in test [2] (Homo sapiens, 96 h).

For the compound `O=C(c1ccc(C(=O)N2C[C@@H](CCl)c3c2cc(O[C@@H]2O[C@H](CO)[C@H](O)[C@H](O)[C@H]2O)c2ccccc32)s1)N1C[C@@H](CCl)c2c1cc(O)c1ccccc21` [Compound 145, ((S)-1-(chloromethyl)-5-(((2S,3R,4S,5R,6R)-3,4,5-trihydroxy-6-(hydroxymethyl)tetrahydro-2H-pyran-2-yl)oxy)-1,2-dihydro-3H-benzo[e]indol-3-yl)(5-((S)-1-(chloromethyl)-5-hydroxy-2,3-dihydro-1H-benzo[e]indole-3-carbonyl)thiophen-2-yl)methanone], the pIC50 is 10.29 in test [1] (Homo sapiens, 96 h) and 9.89 in test [2] (Homo sapiens, 96 h).

For `O=C(c1ccc(C(=O)N2C[C@@H](CCl)c3c2cc(O)c2ccccc32)o1)N1C[C@@H](CCl)c2c1cc(O)c1ccccc21` [Compound 13, (S)-furan-2,5-diylbis(((S)-1-(chloromethyl)-5-hydroxy-1H-benzo[e]indol-3(2H)-yl)methanone)], the pIC50 is 10.85 in test [1] (Homo sapiens, 96 h) and 9.86 in test [2] (Homo sapiens, 96 h).

Turning to `CC(=O)Oc1cc2c(c3ccccc13)[C@H](CCl)CN2C(=O)c1cc2cc(NC(=O)Nc3ccc4[nH]c(C(=O)N5C[C@@H](CCl)c6c5cc(OC(C)=O)c5ccccc65)cc4c3)ccc2[nH]1` [Compound 149, (1S)-3-[(5-{[(2-{[(1S)-5-(acetyloxy)-1-(chloromethyl)-1,2-dihydro-3H-benzo[e]indol-3-yl]carbonyl}-1H-indol-5-yl)carbamoyl]amino}-1H-indol-2-yl)carbonyl]-1-(chloromethyl)-1,2-dihydro-3H-benzo[e]indol-5-yl acetate], the pIC50 in test [1] (Homo sapiens, 96 h) is 11.15; in test [2] (Homo sapiens, 96 h), 9.88.

Consider `CC(=O)Oc1cc2c(c3ccccc13)[C@H](CCl)CN2C(=O)CC1(CC(=O)N2C[C@@H](CCl)c3c2cc(OC(C)=O)c2ccccc32)CCCC1` [Compound 157, cyclopentane-1,1-diylbis[(1-oxoethane-2,1-diyl)(1S)-1-(chloromethyl)-1,2-dihydro-3H-benzo[e]indole-3,5-diyl] diacetate], for which the pIC50 in test [1] (Homo sapiens, 96 h) is 7.11; in test [2] (Homo sapiens, 96 h), at most 8.00.

As for `O=C(c1cccc(C(=O)N2C[C@@H](CCl)c3c2cc(O)c2ccccc32)c1)N1C[C@@H](CCl)c2c1cc(O)c1ccccc21` [Compound 20, (S)-1,3-phenylenebis(((S)-1-(chloromethyl)-5-hydroxy-1H-benzo[e]indol-3(2H)-yl)methanone)], the pIC50 in test [1] (Homo sapiens, 96 h) is 8.79; in test [2] (Homo sapiens, 96 h), 6.53.

On to `O=C(c1ccc(C(=O)N2C[C@@H](CCl)c3c2cc(OP(=O)(O)O)c2ccccc32)s1)N1C[C@@H](CCl)c2c1cc(O)c1ccccc21` [Compound 171, (1S)-1-(chloromethyl)-3-[(5-{[(1S)-1-(chloromethyl)-5-hydroxy-1,2-dihydro-3H-benzo[e]indol-3-yl]carbonyl}thiophen-2-yl)carbonyl]-2,3-dihydro-1H-benzo[e]indol-5-yl dihydrogen phosphate], for which the pIC50 was 9.88 in test [1] (Homo sapiens, 96 h) and 8.81 in test [2] (Homo sapiens, 96 h).

In the case of `NC(CC(=O)N1C[C@@H](CCl)c2c1cc(O)c1ccccc21)CC(=O)N1C[C@@H](CCl)c2c1cc(O)c1ccccc21` [Compound 40, 3-Amino-1,5-bis-((S)-1-chloromethyl-5-hydroxy-1,2-dihydro-enzo[e]indol-3-yl)-pentane-1,5-dione], the pIC50 in test [1] (Homo sapiens, 96 h) is 9.75; in test [2] (Homo sapiens, 96 h) it was 8.73.

As for `CC(=O)Oc1cc2c(c3ccccc13)[C@H](CCl)CN2C(=O)C12CCC(C(=O)N3C[C@@H](CCl)c4c3cc(OC(C)=O)c3ccccc43)(CC1)CC2` [Compound 159, bicyclo[2.2.2]octane-1,4-diylbis[carbonyl(1S)-1-(chloromethyl)-1,2-dihydro-3H-benzo[e]indole-3,5-diyl] diacetate], the pIC50 in test [1] (Homo sapiens, 96 h) was 10.35; in test [2] (Homo sapiens, 96 h), 8.62.

Take `Cc1c[nH]c2c(O)cc3c(c12)[C@H](CCl)CN3C(=O)CN(CC(=O)N1C[C@@H](CCl)c2c1cc(O)c1[nH]cc(C)c21)C(=O)OCC1c2ccccc2-c2ccccc21` [Compound 169, 9H-fluoren-9-ylmethyl bis{2-[(1S)-1-(chloromethyl)-5-hydroxy-8-methyl-1,6-dihydropyrrolo[3,2-e]indol-3(2H)-yl]-2-oxoethyl}carbamate]: the pIC50 in test [1] (Homo sapiens, 96 h) was 9.41; in test [2] (Homo sapiens, 96 h) it was 8.01.

As for `CC(=O)Oc1cc2c(c3ccccc13)[C@H](CCl)CN2C(=O)C12CC(C(=O)N3C[C@@H](CCl)c4c3cc(OC(C)=O)c3ccccc43)(C1)C2` [Compound 152, bicyclo[1.1.1]pentane-1,3-diylbis[carbonyl(1S)-1-(chloromethyl)-1,2-dihydro-3H-benzo[e]indole-3,5-diyl] diacetate], the pIC50 in test [1] (Homo sapiens, 96 h) was 11.10; in test [2] (Homo sapiens, 96 h), 9.56.

In the case of `NC(CC(=O)N1C[C@H]2C[C@@]23C1=CC(=O)c1ccccc13)CC(=O)N1C[C@H]2C[C@@]23C1=CC(=O)c1ccccc13` [Compound 166, 3-amino-1,5-bis[(1aS,9bR)-5-oxo-1a,2-dihydro-1H-benzo[e]cyclopropa[c]indol-3(5H)-yl]pentane-1,5-dione], the pIC50 in test [1] (Homo sapiens, 96 h) is 9.18; in test [2] (Homo sapiens, 96 h) it was 8.24.

On to `CC(=O)Oc1cc2c(c3ccccc13)[C@H](CCl)CN2C(=O)Cc1cc(CC(=O)N2C[C@@H](CCl)c3c2cc(OC(C)=O)c2ccccc32)cc([N+](=O)[O-])c1` [Compound 178, (5-nitrobenzene-1,3-diyl)bis[(1-oxoethane-2,1-diyl)(1S)-1-(chloromethyl)-1,2-dihydro-3H-benzo[e]indole-3,5-diyl] diacetate], for which the pIC50 in test [1] (Homo sapiens, 96 h) was 10.44; in test [2] (Homo sapiens, 96 h), 9.32.

As to `Nc1ccc(CCC(=O)N(CC(=O)N2C[C@@H](CCl)c3c2cc(O)c2ccccc32)CC(=O)N2C[C@@H](CCl)c3c2cc(O)c2ccccc32)cc1` [Compound 56, 3-(4-Amino-phenyl)-N,N-bis-[2-((S)-1-chloromethyl-5-hydroxy-1,2-dihydro-benzo[e]indol-3-yl)-2-oxo-ethyl]-propionamide], the pIC50 was 8.16 in test [1] (Homo sapiens, 96 h) and at most 7.00 in test [2] (Homo sapiens, 96 h).
